According to PMC4273293 (2014):

What was measured:
[1] = tested on: Fa2T (DNA, G4) ACAGGGGTGTGGGGACAGGGGTGTGGGG; experiment: FRET melting; conditions: K+ 10 mM, Li+ 90 mM, Na+ 10 mM; cacodylate buffer, pH 7.2; DNA 0.2 µM; ligand–DNA ratio 5.0
[2] = tested on: ILPR-DNA a2 (DNA, G4) ACAGGGGTGTGGGGACAGGGGTGTGGGG; experiment: fluorimetric titration; conditions: K+ 95 mM, potassium phosphate buffer, pH 7.0, 20 °C, DNA concentration in nucleotide bases, per base
[3] = tested on: 22AG (DNA, G4) AGGGTTAGGGTTAGGGTTAGGG; experiment: CD spectroscopy (induced CD)
[4] = tested on: 22AG (DNA, G4) AGGGTTAGGGTTAGGGTTAGGG; experiment: fluorimetric titration; conditions: K+ 95 mM; 20 °C; DNA concentration in oligonucleotide

| Structure (SMILES) | ΔTm [1] | Kb^a2 [2] | binding [3] | Kb^22AG [4] | Kb^a2 ([2]; site 1 of 2) |
| --- | --- | --- | --- | --- | --- |
| COc1cc2cc3c4cc(OC)c(OC)cc4cc[n+]3c(C)c2cc1OC | 3.1 ± 0.5 °C | 2.5e+06 M⁻¹ |  |  |  |
| CN1C(=Cc2cc[n+](C)c3ccccc23)Sc2ccccc21 | 1.8 ± 0.5 °C | 300000 M⁻¹ | yes |  |  |
| CN1C(=CC=C(C=Cc2sc3ccccc3[n+]2C)C=Cc2sc3ccccc3[n+]2C)Sc2ccccc21 | 4.9 ± 0.5 °C | 1.2e+06 M⁻¹ |  |  |  |
| C[n+]1cc(NC(=O)c2cccc(C(=O)Nc3cc4ccccc4[n+](C)c3)n2)cc2ccccc21 | 14.9 ± 0.5 °C | 2.4e+06 M⁻¹ |  |  |  |
| C[n+]1ccc(-c2c3nc(c(-c4cc[n+](C)cc4)c4ccc([nH]4)c(-c4cc[n+](C)cc4)c4nc(c(-c5cc[n+](C)cc5)c5ccc2[nH]5)C=C4)C=C3)cc1 | 6.3 ± 0.5 °C | 2.2e+06 M⁻¹ |  |  |  |
| CN1C=CC(=CC=C(C=Cc2cc[n+](C)c3ccccc23)C=Cc2cc[n+](C)c3ccccc23)c2ccccc21 | 3.5 ± 0.5 °C | 200000 M⁻¹ |  | 200000 M⁻¹ |  |
| CN1C(=CC=C(C=CC2=[N+](C)c3ccccc3C2(C)C)C=CC2=[N+](C)c3ccccc3C2(C)C)C=Cc2ccccc21 | 3.4 ± 0.5 °C |  |  | 390000 M⁻¹ | 1.7e+07 M⁻¹ |
| c1cc[n+]2cc3c(cc2c1)c1cc2cccc[n+]2cc1c1c2c[n+]4ccccc4cc2c2cc4cccc[n+]4cc2c31 | 5.8 ± 0.5 °C | 3.5e+06 M⁻¹ |  |  |  |
| CN1C(=CC=C(C=Cc2ccc3ccccc3[n+]2C)C=Cc2ccc3ccccc3[n+]2C)C(C)(C)c2ccccc21 | 3.7 ± 0.5 °C |  |  | 900000 M⁻¹ | 5.5e+06 M⁻¹ |
| CN1C(=CC=C(C=Cc2ccc3ccccc3[n+]2C)C=Cc2ccc3ccccc3[n+]2C)C=Cc2ccccc21 | 14.5 ± 0.5 °C | 2.7e+06 M⁻¹ |  | 200000 M⁻¹ |  |
